# Reference: patent US20200345746A1, “Oxazine Derivative for Use in the Prevention of Alzheimer's Disease in at Risk Patents” (Novartis AG, priority 2016, published 2020)
# “Also recorded” adds a separate entry of the source.
# Legend:
# [1] = 3-month dose-ranging study: safety and tolerability; assay type: in vivo, human; conditions: healthy elderly subjects, once-daily 2, 10, 35 and 85 mg over three months
# Text: This study is listed in ClinicalTrials.gov under the NCT02576639 Identifier code.
# The primary purpose of this study was to expand on previous safety and tolerability data obtained over 2-week and 4-week duration in the first in human study and thereby allow initiation of future long-term efficacy trials in subjects at risk of AD. In addition, data relevant for Pharmacokinetic/Pharmacodynamic modeling was obtained in order to support dose selection decisions for future efficacy studies.
# [2] = Drug-drug interaction study: PK of Compound 1 with the strong CYP3A4 inhibitor itraconazole; assay type: in vivo, human; conditions: healthy volunteers, with itraconazole 200 mg q.d. vs Compound 1 alone
# [3] = 3-month dose-ranging study: plasma pharmacokinetics (Cmax,ss); assay type: in vivo, human; conditions: Day 91, 85 mg qd.
# Aβ40 [4] = assay: Acute PK/PD in APOE4-TR mice: Aβ40 in CSF; assay type: in vivo, mouse; conditions: for Average Aβ40 CSF ± SD: n = 6
# Method: Compound 1 was formulated as a suspension. Vehicle or compound was given by oral administration in a volume of 10 ml/kg once. Vehicle: 0.1% Tween80 in 0.5% Methylcellulose in water.
# Analysis of Aβ40 in Mouse Brain and Aβ40 and Aβ42 in CSF
# Aβ40 [5] = assay: Formic acid soluble Aβ40 in APP23 mouse forebrain; assay type: in vivo
# Method: (§1) Frozen mouse forebrains were weighed and homogenized in 9 volumes (w/v) of ice-cold TBS-Complete (20 mM Tris-HCl pH 7.4, 137 mM NaCl, 1× Complete [Protease Inhibitor Cocktail Tablets: 1 836 145, Roche Diagnostics GmbH, Penzberg, Germany]) by sonication (90% duty cycle, output control 5, 40-55 pulses, [Sonifier 450, Branson]). After homogenization several 50 μl aliquots were prepared for analysis and were stored at −80° C.
# Fifty microliter of forebrain homogenate was mixed with 116.6 μl 100% formic acid, resulting in a final formic acid concentration of 70%. Samples were stored on ice and vortexed every 5 minutes. For neutralization, 50 μl of the mixture were pipetted into a new tube, and 950 μl of 1 M Tris base, containing 1× Complete Protease inhibitor, was added. Tubes were stored at room temperature overnight and then centrifuged for 15 minutes at 14000 rpm in an Eppendorf Microzentrifuge at 4° C. From the top layer, 100 μl are removed and mixed with 100 μl of 3% Blocker A solution (part of the MesoScale assay kit). This sample was either directly applied to the assay plate (dilution 1:1332) or further diluted in 1% Blocker A solution.
# C57BL/6 mice = assay: Fur colour scoring, chronic 8-week dosing in wild-type mice; assay type: in vivo, mouse; conditions: 8 and 50 μmol/kg p.o. once daily, 8 weeks
# Method: Compound 1 and NB-360 were formulated as a suspension. […] Vehicle: […] in 0.5% methylcellulose in water.
# Body weight was taken 3 times per week (Monday, Wednesday, Friday). Subjective scoring of any hair colour changes was performed once weekly (Wednesday). Scores (% of body with grey fur): 0: No change; 1: Spots; 2: >30%; 3: >50%; 4: >75%; 5: 100%. Animals were photo-documented when fur color change was observed. Final fur color scoring was performed blinded and by a person not involved in the study.
# [6] = off-target binding or activity
# Aβ42 = assay: Triton TX-100 soluble Aβ42 in APP23 mouse brain; assay type: in vivo; conditions: APP23 mice
# Method: as §1
# Human Aβ40 and 42 in mice was determined with the Meso Scale Discovery (MSD) 96-well MULTI-ARRAY human/rodent (6E10) Aβ40/42 Assay (Meso Scale Discovery, Rockville, Md., USA). The assay was performed according to the manufacturer's instructions except for the calibration curve and the sample preparations. […]
# The calibration curve was prepared in a corresponding dilution of 1% Blocker A solution spiked with synthetic Aβ1-40 peptide (1.56-100 pg/ml) except for non-transgenic mouse brain samples: In this case, the calibration curve was prepared in a correspondingly diluted APP knockout mouse forebrain spiked with synthetic Aβ1-40 peptide (1.56-100 pg/ml). […] The relative units for samples and standards were imported into SOFTmax PRO 4.0 for calculation of standard curves and quantification of samples. […]
compound,measurement,setting,value
"C[C@@]1(c2nc(NC(=O)c3ncc(C(F)(F)F)cc3Cl)ccc2F)CO[C@@](C)(C(F)(F)F)C(N)=N1 [Compound 1, N-(6-((3R,6R)-5-amino-3,6-dimethyl-6-(trifluoromethyl)-3,6-dihydro-2H-1,4-oxazin-3-yl)-5-fluoropyridin-2-yl)-3-chloro-5-(trifluoromethyl)picolinamide]",safety and tolerability,[1],safe and tolerated
same,increase of mean AUC of Compound 1,[2],2-3 fold
same,increase of mean Cmax of Compound 1,[2],25%
same,"Cmax, ss, Mean",[3],602 ng/mL
same,Mini AUEC (CSF Aβ40),Aβ40 [4]; 3 μmol/kg acute,26%
same,Average Aβ40 CSF ± SD,"Aβ40 [4]; 3 μmol/kg acute p.o., 4 h",0.1308 ± 0.06381 pmol/mL
same,Average Aβ40 CSF ± SD,"Aβ40 [4]; 3 μmol/kg acute p.o., 24 h",0.1402 ± 0.07911 pmol/mL
same,% reduction vs vehicle (CSF Aβ40),"Aβ40 [4]; 3 μmol/kg acute, 4 h",28%
same,% reduction vs vehicle (CSF Aβ40),"Aβ40 [4]; 3 μmol/kg acute, 24 h",23%
same,Mini AUEC (CSF Aβ40),Aβ40 [4]; 10 μmol/kg acute,37%
same,Average Aβ40 CSF ± SD,"Aβ40 [4]; 10 μmol/kg acute p.o., 4 h",0.07527 ± 0.03356 pmol/mL
same,Average Aβ40 CSF ± SD,"Aβ40 [4]; 10 μmol/kg acute p.o., 24 h",0.1565 ± 0.08348 pmol/mL
same,% reduction vs vehicle (CSF Aβ40),"Aβ40 [4]; 10 μmol/kg acute, 4 h",59%
same,% reduction vs vehicle (CSF Aβ40),"Aβ40 [4]; 10 μmol/kg acute, 24 h",14%
same,Mini AUEC (CSF Aβ40),Aβ40 [4]; 30 μmol/kg acute,77%
same,Average Aβ40 CSF ± SD,"Aβ40 [4]; 30 μmol/kg acute p.o., 4 h",0.02533 ± 0.01093 pmol/mL
same,Average Aβ40 CSF ± SD,"Aβ40 [4]; 30 μmol/kg acute p.o., 24 h",0.06083 ± 0.03445 pmol/mL
same,% reduction vs vehicle (CSF Aβ40),"Aβ40 [4]; 30 μmol/kg acute, 4 h",86%
same,% reduction vs vehicle (CSF Aβ40),"Aβ40 [4]; 30 μmol/kg acute, 24 h",67%
same,Formic acid soluble Aβ40 change vs vehicle,"Aβ40 [5]; APP23, 0.03 g/kg vs vehicle",−18.1%
same,Formic acid soluble Aβ40 change vs vehicle,"Aβ40 [5]; APP23, 0.3 g/kg vs vehicle",−79.2%
same,fur colour change,C57BL/6 mice,no apparent fur color change detectable; also recorded: did not show signs of hair discoloration
same,off-target binding or activity,[6],no relevant off-target binding or activity
same,"Aβ42 change vs vehicle (Triton TX-100 soluble, brain)",Aβ42; 0.03 g/kg vs vehicle,−20.1%
same,"Aβ42 change vs vehicle (Triton TX-100 soluble, brain)",Aβ42; 0.3 g/kg vs vehicle,−77.3%
